Entries after “also recorded” stand apart in the source; their conditions may differ. No end group written: not given here.
Legend:
[1] = tested on: iPSC-derived cortical neurons from MPS IIIA and MPS IIIC patients; test: Synaptic protein markers and BDNF in iPSC-derived cultured cortical neurons (immunocytochemistry); type: cell-based, human; settings: 10 μM in culture; MPS IIIA and MPS IIIC patient neurons
Text: Generation of iPSC lines MPS III patient fibroblast lines were obtained from the Coriell Institute for Medical Research (NJ, USA), or from the hospitals were the patients were diagnosed/followed with the informed consent of patient's families. The fibroblasts were propagated in Dulbecco's Modified Eagle Medium (DMEM, ThermoFisher) with 10% fetal bovine serum (FBS) and 1% Antibiotic-Antimycotic (15240062, ThermoFisher) and tested for mycoplasma. The cells were further reprogrammed into iPSCs at the CHUSJ iPSC Platform using a non-integrating CytoTune-Sendai viral reprograming kit (A16517, Thermo Fisher Scientific, MA, USA) according to the manufacture's protocol. Two colonies for each iPSC line were used for further proliferation, iPSCs were expanded and maintained on six-well plates coated with Matrigel mTeSR™ Plus medium at 37° C., in 5% CO2/5% O2 atmosphere following the medium manufacturer's protocol. […]
Induction of cortical NPC and cortical neurons iPSCs were differentiated into cortical forebrain committed neural precursor cells (NPCs) by dual SMAD inhibition by passaging iPSCs over to poly-L-ornithine (PO)/laminin coated dishes. […] After induction for 3 weeks the cells were analyzed by ICH for the presence of neuronal markers PAX6, and TUBB3, confirmation of disease-specific enzymatic deficiencies and lysosomal storage phenotype (increased size of LAMP2+ puncta by ICH). […]

β-hexosaminidase = test: Total β-hexosaminidase activity in brain homogenates; type: in vivo, mouse; settings: chronic daily 50 μg/kg BW, vs saline
Method: The activity of β-hexosaminidase was measured by combining 2.5 μl of 10× diluted homogenate ([…] of protein) with 15 μl of 0.1 M sodium acetate buffer (pH 4.2), and 12.5 μl of 3 mM 4-methylumbelliferyl N-acetyl-β-D-glucosaminide (Sigma-Aldrich) followed by incubation for 30 min at 37° C. The reaction was stopped 0.4 M glycine buffer (pH 10.4) and fluorescence was measured as above.
Starting from 3 weeks of age, WT C57B16 and homozygous Hgsnat^P304L male and female mice were randomly divided in treatment and control groups (6-13 mice/sex/genotype/treatment; see Table I). The control group was daily administered with saline (5 μL to each nostril), while for the treatment group, saline was supplemented with 125 µg of AVP6/mL, which would result in a dose of approximately 50 μg/kg BW/day. The peptide formulation was prepared once, aliquoted and kept frozen at −80° C. until use. At 4 months, all mice were studied by EPM, OF, YM and NOR behavioral tests. Administration of the drug or saline was continued through the days on which the assays were conducted. Then approximately at 5 months 4-5 mice in each group were sacrificed. Their blood plasma was collected, and their tissues were either snap-frozen or fixed and cryopreserved to analyze CNS pathology as described above. […] When such signs were detected, the mice were studied by ERG and sacrificed within 1-2 days. […]

[2] = Effect on memory and learning after intranasal administration (earlier work); type: in vivo; settings: 50 μg/kg BW intranasal; mice and rats

Substance: AVP6: N-terminally acetylated Semax, a nootropic peptide having the amino acid sequence of MEHFPGP (SEQ ID NO:1) (Ac-MEHFPGP)
- levels of BDNF+, VGLUT1+ and PSD-95+ puncta [1]: significantly increased
- levels of VGLUT1+, PSD-95+, SYN1+ and BDNF+ puncta [1]: rescues reduced levels of synaptic markers; also recorded: significantly increased
- total β-hexosaminidase activity in total brain homogenates (β-hexosaminidase; Hgsnat^P304L mice at 5 months): remained similar
- total β-hexosaminidase activity in brain homogenates (β-hexosaminidase; Hgsnat^P304L mice at terminal timepoint): trend for reduction
- time to maximal effect on memory and learning after intranasal administration [2]: ≤ 24 h

Reference: patent US20240043473A1, “NOOTROPIC PEPTIDES FOR TREATING LYSOSOMAL STORAGE DISEASES” (Phoenix Nest Inc., priority 2021, published 2024)
